In patent US4282215A, “Analgesic mixture of nalbuphine and acetylsalicylic acid, derivative or salt thereof” (E. I. Du Pont de Nemours and Company, priority 1980, dated 1981):
Counter-ions that a name gives are not always drawn.

Columns and labels:
[1] = tested on: phenyl-p-benzoquinone induced writhing in mice; experiment: mouse antiphenylquinone writhing test at 20 minutes, oral nalbuphine.HCl / aspirin suspension (Method 1); format: in vivo, mouse (Male CF1)
Method: (§1) Male CF1 mice obtained from Charles River Breeding Laboratories, fasted for 16-22 hours, and weighing 18-22 g at the time of testing are used throughout. All mice are dosed sequentially by the oral route with suspensions of acetylsalicylic acid and/or of nalbuphine solutions (Method 1) or of calcium acetylsalicylate (calcium aspirin) and/or of nalbuphine solutions (Method 2). In each case the aspirin component is calculated as the equivalent free acid content, and nalbuphine is calculated as the hydrochloride salt. A dosing volume of 10 ml/kg is used for each sequential solution or suspension. All doses are coded and the test is performed under a code not known to the observer.
A stock suspension of aspirin is prepared by mixing 2.016 gm aspirin with 40 ml of an aqueous vehicle containing 2% by volume of Tween 80®, a pharmacological dispersant manufactured by Fisher Scientific Company and containing 100% polysorbate 80, and 1% by weight of Methocel® MC powder, a pharmacological suspending agent manufactured by DOW Chemical Company and containing 100% methylcellulose, in distilled water. The mixture is sonicated at 150 watts for 10-15 seconds with an ultrasound system, then shaken for 1 hour at 280 oscillations/minute with 15-20 gm of glass beads. The resultant suspension contains 50.4 mg/ml of aspirin; all dosing suspensions are prepared by dilution of the stock suspension with the Methocel®/Tween 80® vehicle; the vehicle control is Methocel®/Tween 80®. All suspensions are used within two hours of preparation, then discarded.
Stock solutions of nalbuphine.HCl are prepared by dissolving dry nalbuphine hydrochloride powder with distilled water. All dosing solutions are prepared by dilution of the stock solutions with distilled water; the vehicle control is distilled water.
(§2) A standard procedure for detecting and comparing the analgetic activity of different classes of analgesic drugs for which there is a good correlation with human analgetic activity is the prevention of phenyl-p-benzoquinone induced writhing in mice [H. Blumberg et al., Proc. Soc. Exp. Biol. Med., 118, 763-766 (1965)].
(§3) Mice, intubated with various doses of nalbuphine.HCl, aspirin suspensions (Method 1), calcium aspirin solution (Method 2), or immediately sequential doses of nalbuphine.HCl and of the aspirin preparations as defined further, or of the respective vehicles, are injected intraperitoneally with a standard challenge dose of phenyl-p-benzoquinone 5 min. prior to a designated observation period. The phenyl-p-benzoquinone is prepared as a 0.1 mg/ml solution in 5% by volume of ethanol in water; the writhing dose is 1.25 mg/kg injected at a volume of 0.25 ml/20 g. For scoring purposes a "writhe" is indicated by whole body stretching or contraction of the abdomen during a 10 min. observation period beginning 5 min. after receiving the phenyl-p-benzoquinone dose. Each mouse is used only once, then discarded.
(§4) All ED50 values and their 95% confidence limits are determined numerically by the methods of Thompson [W. F. Thompson, Bacteriological Rev., 11, 115-145 (1947)], Litchfield and Wilcoxon [J. T. Litchfield, Jr. and F. Wilcoxon, J. Pharm. Exp. Ther., 96, 99-113 (1949)], or Finney [D. J. Finney, "Probit Analysis," third edition, Cambridge University Press, Cambridge, England, (1971)].
Rev., 9, 237-242 (1957)] in FIG. 1. […] In the isobolographic figures, the analgetic effects of nalbuphine alone are presented on the Y axis and of aspirin alone (or calcium aspirin, expressed as aspirin equivalent dosages) on the X axis. The dotted lines radiating from the origin represent the fixed dosage ratios of nalbuphine.HCl:aspirin in the ranges of 1:2.44 to 1:60.9 and 1:1.76 to 1:61.7 for FIGS. 1 and 2, respectively. […] The arrows extending above and below each ED50 point represent the 95% confidence limits of the ED50's. […]

[2] = tested on: phenyl-p-benzoquinone induced writhing in mice; experiment: mouse antiphenylquinone writhing test at 40 minutes, oral nalbuphine.HCl / calcium aspirin (Method 2); format: in vivo, mouse (Male CF1)
Method: as §1
A stock solution of calcium aspirin is prepared by mixing 4.032 gm of aspirin and 1.120 gm of precipitated calcium carbonate with 50 ml of distilled water at 40°-50° C. until the solids are completely dissolved, then diluting to 60 ml with distilled water at ambient temperature to obtain a solution containing 67.2 mg/ml of aspirin equivalent. All dosing solutions are prepared by dilution of the stock solution with distilled water; the vehicle control is distilled water. All solutions are used within two hours of preparation, then discarded.
Stock solutions of nalbuphine.HCl are prepared as described for Method 1.
as §2, §3, §4
Rev., 9, 237-242 (1957)] in FIG. 1. […] In the isobolographic figures, the analgetic effects of nalbuphine alone are presented on the Y axis and of aspirin alone (or calcium aspirin, expressed as aspirin equivalent dosages) on the X axis. The dotted lines radiating from the origin represent the fixed dosage ratios of nalbuphine.HCl:aspirin in the ranges of 1:2.44 to 1:60.9 and 1:1.76 to 1:61.7 for FIGS. 1 and 2, respectively. […] The arrows extending above and below each ED50 point represent the 95% confidence limits of the ED50's.
The solid line connecting the ED50 dosages of nalbuphine (alone) and aspirin (alone) represents the "ED50 addition line," which indicates the expected location of the ED50's for nalbuphine and aspirin combinations if simple additivity were to describe their combined effects. The 95% confidence range for the ED50 addition line is shown by the area between the broken lines above and below the ED50 addition line. […]

Question: What does the source list for `CC(=O)Oc1ccccc1C(=O)O` [Aspirin, acetylsalicylic acid]?
Answer: ED50 at 20 MIN., Aspirin (component) ([1]; N = 24 mice/dose): 206 mg/kg; % MICE BLOCKED ([1]; nalbuphine.HCl 0, aspirin 63 mg/kg): 8.3%; % MICE BLOCKED ([1]; nalbuphine.HCl 0, aspirin 126 mg/kg): 37.5%; % MICE BLOCKED ([1]; nalbuphine.HCl 0, aspirin 252 mg/kg): 58.3%; % MICE BLOCKED ([1]; nalbuphine.HCl 0, aspirin 504 mg/kg): 79.2%

Question: What does the source list for `Oc1ccc2c3c1O[C@H]1[C@@H](O)CC[C@@]4(O)[C@@H](C2)N(CC2CCC2)CC[C@]314` [Nalbuphine . HCl, (-)17-(cyclobutylmethyl)-4,5α-epoxymorphinan-3,6α,14-triol]?
Answer: ED50 at 40 MIN., Nalbuphine . HCl (component) ([2]; N = 54 mice/dose): 42.6 mg/kg; % MICE BLOCKED ([2]; nalbuphine.HCl 5.45 mg/kg alone): 13.0%; % MICE BLOCKED ([2]; nalbuphine.HCl 10.9 mg/kg, aspirin 0): 16.7%; % MICE BLOCKED ([2]; nalbuphine.HCl 21.8 mg/kg, aspirin 0): 27.8%; % MICE BLOCKED ([2]; nalbuphine.HCl 43.6 mg/kg, aspirin 0): 50.0%; % MICE BLOCKED ([2]; nalbuphine.HCl 87.2 mg/kg, aspirin 0): 74.1%; ED50 at 20 MIN., Nalbuphine . HCl (component) ([1]; N = 24 mice/dose): 26.1 mg/kg; % MICE BLOCKED ([1]; nalbuphine.HCl 5.18 mg/kg, aspirin 0): 0%; % MICE BLOCKED ([1]; nalbuphine.HCl 10.4 mg/kg, aspirin 0): 16.7%; % MICE BLOCKED ([1]; nalbuphine.HCl 20.7 mg/kg, aspirin 0): 50.0%; % MICE BLOCKED ([1]; nalbuphine.HCl 41.4 mg/kg, aspirin 0): 62.5%

Question: Which results are given for `CC(=O)Oc1ccccc1C(=O)O` [calcium aspirin, calcium acetylsalicylate]?
Answer: ED50 at 40 MIN., Aspirin (component; calcium aspirin as equivalent free aspirin) ([2]; N = 54 mice/dose): 171 mg/kg; % MICE BLOCKED ([2]; nalbuphine.HCl 0, aspirin equiv. 48 mg/kg): 7.4%; % MICE BLOCKED ([2]; nalbuphine.HCl 0, aspirin equiv. 96 mg/kg): 13.0%; % MICE BLOCKED ([2]; nalbuphine.HCl 0, aspirin equiv. 192 mg/kg): 63.0%; % MICE BLOCKED ([2]; nalbuphine.HCl 0, aspirin equiv. 384 mg/kg): 87.0%
